Source: patent publication US4226865A, “Method of treating depression” (Hoffmann-La Roche Inc., priority 1976, dated 1980)

Tests used:
[1] = tested on: monoamine oxidase (MAO); test: MAO inhibiting activity in liver homogenates of rats one hour after p.o. administration; assay type: in vivo; settings: p.o. in the rat; MAO activity measured in liver homogenates one hour after administration; 60 min
Method: (§1) Thus, the thiobenzamides of formula I to be tested were administered p.o. to rats. One hour after the administration, the rats were killed and the MAO inhibiting activity in the liver homogenates was measured according to the method in Biochem. Pharmacol. 12, pp. 1439-1441 (1963). The thus determined activity of representative thiobenzamides of formula I as well as their toxicity is evident from the ED50 values (μmol/kg, p.o. in the rat) or LD50 values (mg/kg, p.o. in the mouse) listed in the Table which follows: […]

[2] = Toxicity (LD50), p.o. in the mouse; settings: in vivo, po
Method: as §1

| Structure (SMILES) | ED50 (MAO inhibiting activity) [1] | LD50 [2] |
| --- | --- | --- |
| S=C(NCCN1CCOCC1)c1ccc(Br)cc1 [p-bromo-N-(2-morpholinoethyl)-thiobenzamide] | 2 µmol/kg | 1250 to 2500 mg/kg |
| S=C(NCCN1CCOCC1)c1ccc(Cl)cc1 [p-chloro-N-(2-morpholinoethyl)thiobenzamide] | 2 µmol/kg | 1250 to 2500 mg/kg |
| CC(C)(C)c1ccc(C(=S)NCCN2CCOCC2)cc1 [p-t-butyl-N-(2-morpholinoethyl)-thiobenzamide] | 10 µmol/kg | > 5000 mg/kg |
